{
  "source": "patent EP4467137A1",
  "about": "“TREATMENT OF FRONTOTEMPORAL DEMENTIA OR FRONTOTEMPORAL LOBAR DEMENTIA” (Universidad Autónoma de Madrid, priority 2023, dated 2024)",
  "key": {"[1]": {"tested_on": "hyperphosphorylated tau", "experiment": "Hyperphosphorylated tau (AT8 immunofluorescence) in primary neurons treated with AAV-hTauP301L", "format": "cell-based, mouse", "conditions": "treatment every other day for 8 days, compound 1 at 30 µM"}, "[2]": {"tested_on": "primary rat glial cultures", "experiment": "Anti-neuroinflammatory screening in LPS-treated primary glial cultures (Griess, normalized by MTT)", "format": "cell-based", "conditions": "% reduction of nitrites, LPS alone = 100 % inflammation, read-out: Anti-neuro inflammatory effect at 3 µM (%)", "description": "Screening for anti-inflammatory properties in primary rat glial cultures was performed according to the protocol described previously [Gameiro, Isabel et al. \"Discovery of the first dual GSK3β inhibitor/Nrf2 inducer. A new multitarget therapeutic strategy for Alzheimer's disease.\" Scientific reports vol. 7 45701. 31 Mar. 2017, doi:10.1038/srep45701]. All compounds were evaluated at the single concentration of 3 µM. Neuroinflammation was quantified as the value of released […], measured by the Griess method, normalized by the number of viable cells measured by the MTT method [Mosmann, T. \"Rapid colorimetric assay for cellular growth and survival: application to proliferation and cytotoxicity assays.\" Journal of immunological methods vol. 65, 1-2 (1983): 55-63. doi:10.1016/0022-1759(83)90303-4]. LPS alone was considered 100 % inflammation.\n(§1) Based on the results obtained (Table 2), Compound 1 was selected for further in vitro and in vivo studies as it was endowed with the best anti-neuroinflammatory activity. Table 2: Comparative in vitro results. Cell viability/toxicity: effect of the compound per se on cell viability of […] cells measured with the MTT method. Anti-neuroinflammatory effect: % Reduction of nitrites in primary rat glial cultures. PAMPA-BBB: In vitro blood-brain barrier permeation assay, permeation rate Pe (10-6 cm.s-1). NRF2, CD (µM): Concentration of compound that doubles de activation of NRF2. ORAC: Oxygen radical absorbance capacity. LOX-5: lipoxygenase-5."}, "[3]": {"experiment": "In vitro blood-brain barrier permeation assay (PAMPA-BBB)", "format": "in vitro ADME", "from_the_text": "The in vitro blood-brain barrier permeation assay (PAMPA-BBB) was used for predicting the brain penetration of compounds, following a described method [Herrera-Arozamena, Clara et al. \"Resveratrol-Based MTDLs to Stimulate Defensive and Regenerative Pathways and Block Early Events in Neurodegenerative Cascades.\" Journal of medicinal chemistry vol. 65,6 (2022): 4727-4751. doi:10.1021/acs.jmedchem.1c01883]. The results are given as the mean ± SD. In each experiment, 11 quality control standards of known BBB permeability were included to validate the analysis set."}, "[4]": {"tested_on": "NRF2", "experiment": "NRF2 induction, luciferase activity in AREc32 cells", "format": "cell-based", "conditions": "concentration that doubles the activation of NRF2, read-out: NRF2 CD", "from_the_text": "Screening of NRF2 induction was quantified by luciferase activity in AREc32 cells as described in [Herrera-Arozamena, Clara et al. \"Tuning melatonin receptor subtype selectivity in oxadiazolone-based analogues: Discovery of QR2 ligands and NRF2 activators with neurogenic properties.\" European journal of medicinal chemistry vol. 190 (2020): 112090. doi:10.1016/j.ejmech.2020.112090].\nas §1"}, "[5]": {"experiment": "LPS in vivo model: sickness behaviour (body weight, locomotion, novel object recognition)", "parameters": "species or system mouse", "conditions": "20 mg·kg^-1 i.p.", "description": "The LPS in vivo model was induced, sickness behaviour evaluated (locomotion test and novel object recognition test) and cytokines measured by qPCR as described by [Fernández-Mendivil, Cristina et al. \"Protective role of microglial HO-1 blockade in aging: Implication of iron metabolism.\" Redox biology vol. 38 (2021): 101789. doi:10.1016/j.redox.2020.101789]. The panel of mouse cytokines, chemokines, and growth factors were measured by Luminex xMAP technology for multiplexed quantification at Evetechnologies (https://www.evetechnologies.com/)\nExample 2.3.1. Treatment with Compound 1 reduces LPS-induced cytokine expression and release in mouse brain. Mice were treated i.p. with a daily dose of 20 mg·kg^-1 of Compound 1 for 4 consecutive days. On the last day, LPS (0.5 mg·kg^-1) was injected i.p. one h after the compound. Thereafter, behavioural, and biochemical outcomes were analysed at different time points.\nExample 2.3.3. Treatment with Compound 1 reduces LPS-induced sickness behaviour. Peripheral administration of LPS produces neuroinflammation and induces a \"sickness behaviour\" in mice that is characterized by body weight loss, reduction of the locomotor activity and a cognitive decline."}},
  "data": [
    {"smiles": "COc1ccc2c(c1)CC(c1c[nH]c3ccc(OC)cc13)N2", "note": "(centres unmarked) [Compound 1, 5-Methoxy-3-(5-methoxyindolin-2-yl)-1H-indole]", "values": [
      {"measurement": "AT8 intensity levels", "setting": "[1]", "value": "reduced"},
      {"measurement": "inhibition at 3 µM", "setting": "[2]", "value": "100 ± 6.6", "unit": "%"},
      {"measurement": "PAMPA-BBB predicted brain penetration", "setting": "[3]", "value": "cns+"},
      {"measurement": "Papp", "setting": "[3]; PAMPA, permeation rate, mean ± SD, read-out: PAMPA-BBB Pe", "value": "12.9 ± 0.9", "unit": "×10⁻⁶ cm/s"},
      {"measurement": "EC (2-fold activation)", "setting": "[4]", "value": "0.56 ± 0.05", "unit": "µM"},
      {"measurement": "Locomotion, line crossings of an imaginary grid", "setting": "[5]; 4 and 8 h after LPS exposure, values similar to saline animals", "value": "improved"},
      {"measurement": "body weight loss", "setting": "[5]; compared to LPS-vehicle treated animals", "value": "less reduction of the body weight loss"},
      {"measurement": "cognitive decline (NOR test, discrimination index)", "setting": "[5]; compared to vehicle-LPS treated animals", "value": "did not show cognitive decline"}
    ]}
  ]
}
